# Test system: hepatocytes
# Test: Seq-Well scRNA-Seq of hepatocytes after APAP overdose (signature scores, DEG vs untreated)
# Assay type: in vivo, mouse
smiles,measurement,setting,value
"CC(=O)Nc1ccc(O)cc1 [APAP, acetaminophen]",mt-Co2 pct.1,APAP vs. UT,0.157
same,mt-Co3 avg_logFC,APAP vs. UT,−0.9584
same,mt-Co3 pct.1,APAP vs. UT,0.198
same,mt-Cytb avg_logFC,APAP vs. UT,−0.8775
same,mt-Cytb pct.1,APAP vs. UT,0.971
same,mt-Nd1 avg_logFC,APAP vs. UT,−0.76
same,mt-Nd1 pct.1,APAP vs. UT,0.978
same,mt-Nd2 avg_logFC,APAP vs. UT,−0.8325
same,mt-Nd2 pct.1,APAP vs. UT,0.978
same,mt-Nd4 avg_logFC,APAP vs. UT,−1.116
same,mt-Nd4 pct.1,APAP vs. UT,0.942
same,mt-Nd5 avg_logFC,APAP vs. UT,−0.7797
same,mt-Nd5 pct.1,APAP vs. UT,0.942
same,mt-Rnr1 avg_logFC,APAP vs. UT,−0.3538
same,mt-Rnr1 pct.1,APAP vs. UT,1
same,mt-Rnr2 avg_logFC,APAP vs. UT,−0.5458
same,mt-Rnr2 pct.1,APAP vs. UT,1
same,n-R5-8s1 avg_logFC,APAP vs. UT,0.6965
same,n-R5-8s1 pct.1,APAP vs. UT,0.268
same,1700017B05Rik avg_logFC,cluster A6 (APAP 6 hr),0.2894
same,1700017B05Rik pct.1,cluster A6 (APAP 6 hr),0.255
same,2010003K11Rik avg_logFC,cluster A6 (APAP 6 hr),0.4872
same,2010003K11Rik pct.1,cluster A6 (APAP 6 hr),0.396
same,Abca1 avg_logFC,cluster A6 (APAP 6 hr),0.5058
same,Abca1 pct.1,cluster A6 (APAP 6 hr),0.604
same,Abhd2 avg_logFC,cluster A6 (APAP 6 hr),0.3593
same,Abhd2 pct.1,cluster A6 (APAP 6 hr),0.37
same,Agpat9 avg_logFC,cluster A6 (APAP 6 hr),0.2968
same,Agpat9 pct.1,cluster A6 (APAP 6 hr),0.277
same,Alb avg_logFC,cluster A6 (APAP 6 hr),0.4181
same,Alb pct.1,cluster A6 (APAP 6 hr),1
same,Apoa4 avg_logFC,cluster A6 (APAP 6 hr),0.945
same,Apoa4 pct.1,cluster A6 (APAP 6 hr),0.721
same,Apob avg_logFC,cluster A6 (APAP 6 hr),0.3564
same,Apob pct.1,cluster A6 (APAP 6 hr),0.99
same,Apobec1 avg_logFC,cluster A6 (APAP 6 hr),0.2824
same,Apobec1 pct.1,cluster A6 (APAP 6 hr),0.239
same,App avg_logFC,cluster A6 (APAP 6 hr),0.3291
same,App pct.1,cluster A6 (APAP 6 hr),0.315
same,Asl avg_logFC,cluster A6 (APAP 6 hr),0.434
same,Asl pct.1,cluster A6 (APAP 6 hr),0.826
same,B4galt5 avg_logFC,cluster A6 (APAP 6 hr),0.402
same,B4galt5 pct.1,cluster A6 (APAP 6 hr),0.332
same,Bach1 avg_logFC,cluster A6 (APAP 6 hr),0.6724
same,Bach1 pct.1,cluster A6 (APAP 6 hr),0.461
same,Bcl2l1 avg_logFC,cluster A6 (APAP 6 hr),0.6863
same,Bcl2l1 pct.1,cluster A6 (APAP 6 hr),0.501
same,Btg1 avg_logFC,cluster A6 (APAP 6 hr),0.4265
same,Btg1 pct.1,cluster A6 (APAP 6 hr),0.356
same,Btg2 avg_logFC,cluster A6 (APAP 6 hr),0.5388
same,Btg2 pct.1,cluster A6 (APAP 6 hr),0.549
same,C1qa avg_logFC,cluster A6 (APAP 6 hr),0.471
same,C1qa pct.1,cluster A6 (APAP 6 hr),0.174
same,C1qb avg_logFC,cluster A6 (APAP 6 hr),0.5946
same,C1qb pct.1,cluster A6 (APAP 6 hr),0.234
same,C1qc avg_logFC,cluster A6 (APAP 6 hr),0.5477
same,C1qc pct.1,cluster A6 (APAP 6 hr),0.172
same,C230081A13Rik avg_logFC,cluster A6 (APAP 6 hr),0.4148
same,C230081A13Rik pct.1,cluster A6 (APAP 6 hr),0.279
same,Ccl6 avg_logFC,cluster A6 (APAP 6 hr),0.7552
same,Ccl6 pct.1,cluster A6 (APAP 6 hr),0.274
same,Cd5l avg_logFC,cluster A6 (APAP 6 hr),0.5663
same,Cd5l pct.1,cluster A6 (APAP 6 hr),0.21
same,Cd14 avg_logFC,cluster A6 (APAP 6 hr),0.3587
same,Cd14 pct.1,cluster A6 (APAP 6 hr),0.153
same,Cd44 avg_logFC,cluster A6 (APAP 6 hr),0.2929
same,Cd44 pct.1,cluster A6 (APAP 6 hr),0.115
same,Cd53 avg_logFC,cluster A6 (APAP 6 hr),0.2561
same,Cd53 pct.1,cluster A6 (APAP 6 hr),0.103
same,Cd74 avg_logFC,cluster A6 (APAP 6 hr),0.4419
same,Cd74 pct.1,cluster A6 (APAP 6 hr),0.155
same,Cd97 avg_logFC,cluster A6 (APAP 6 hr),0.3303
same,Cd97 pct.1,cluster A6 (APAP 6 hr),0.115
same,Cd163 avg_logFC,cluster A6 (APAP 6 hr),0.4066
same,Cd163 pct.1,cluster A6 (APAP 6 hr),0.146
same,Cdkn1a avg_logFC,cluster A6 (APAP 6 hr),1.099
same,Cdkn1a pct.1,cluster A6 (APAP 6 hr),0.702
same,Cers6 avg_logFC,cluster A6 (APAP 6 hr),0.4774
same,Cers6 pct.1,cluster A6 (APAP 6 hr),0.332
same,Ces1d avg_logFC,cluster A6 (APAP 6 hr),0.3854
same,Ces1d pct.1,cluster A6 (APAP 6 hr),0.859
same,Cfp avg_logFC,cluster A6 (APAP 6 hr),0.3251
same,Cfp pct.1,cluster A6 (APAP 6 hr),0.143
same,Chic2 avg_logFC,cluster A6 (APAP 6 hr),0.39
same,Chic2 pct.1,cluster A6 (APAP 6 hr),0.37
same,Chka avg_logFC,cluster A6 (APAP 6 hr),1.387
same,Chka pct.1,cluster A6 (APAP 6 hr),0.716
same,Cidec avg_logFC,cluster A6 (APAP 6 hr),0.3068
same,Cidec pct.1,cluster A6 (APAP 6 hr),0.253
same,Clec4f avg_logFC,cluster A6 (APAP 6 hr),0.9909
same,Clec4f pct.1,cluster A6 (APAP 6 hr),0.339
same,Clec4d avg_logFC,cluster A6 (APAP 6 hr),0.2622
same,Clec4d pct.1,cluster A6 (APAP 6 hr),0.107
same,Cltc avg_logFC,cluster A6 (APAP 6 hr),0.6346
same,Cltc pct.1,cluster A6 (APAP 6 hr),0.661
same,Creb3l2 avg_logFC,cluster A6 (APAP 6 hr),0.3363
same,Creb3l2 pct.1,cluster A6 (APAP 6 hr),0.329
same,Ctsl avg_logFC,cluster A6 (APAP 6 hr),0.4384
same,Ctsl pct.1,cluster A6 (APAP 6 hr),0.878
same,Ctss avg_logFC,cluster A6 (APAP 6 hr),0.7031
same,Ctss pct.1,cluster A6 (APAP 6 hr),0.212
same,Cxadr avg_logFC,cluster A6 (APAP 6 hr),0.6184
same,Cxadr pct.1,cluster A6 (APAP 6 hr),0.606
same,Cyp4a14 avg_logFC,cluster A6 (APAP 6 hr),0.5996
same,Cyp4a14 pct.1,cluster A6 (APAP 6 hr),0.776
same,D10Wsu102e avg_logFC,cluster A6 (APAP 6 hr),0.5134
same,D10Wsu102e pct.1,cluster A6 (APAP 6 hr),0.37
same,Ddx3x avg_logFC,cluster A6 (APAP 6 hr),0.4893
same,Ddx3x pct.1,cluster A6 (APAP 6 hr),0.692
same,Ddx5 avg_logFC,cluster A6 (APAP 6 hr),0.4732
same,Ddx5 pct.1,cluster A6 (APAP 6 hr),0.685
same,Ddx21 avg_logFC,cluster A6 (APAP 6 hr),0.6398
same,Dgkd avg_logFC,cluster A6 (APAP 6 hr),0.3462
same,Dgkd pct.1,cluster A6 (APAP 6 hr),0.282
same,Dkc1 avg_logFC,cluster A6 (APAP 6 hr),0.3232
same,Dkc1 pct.1,cluster A6 (APAP 6 hr),0.315
same,Dot1l avg_logFC,cluster A6 (APAP 6 hr),0.3695
same,Dot1l pct.1,cluster A6 (APAP 6 hr),0.282
same,Dusp5 avg_logFC,cluster A6 (APAP 6 hr),0.2889
same,Dusp5 pct.1,cluster A6 (APAP 6 hr),0.196
same,Dusp6 avg_logFC,cluster A6 (APAP 6 hr),0.4768
same,Dusp6 pct.1,cluster A6 (APAP 6 hr),0.482
same,Dusp16 avg_logFC,cluster A6 (APAP 6 hr),0.4153
same,Dusp16 pct.1,cluster A6 (APAP 6 hr),0.372
same,Eaf1 avg_logFC,cluster A6 (APAP 6 hr),0.5066
same,Eaf1 pct.1,cluster A6 (APAP 6 hr),0.427
same,Efhd2 avg_logFC,cluster A6 (APAP 6 hr),0.5545
same,Efhd2 pct.1,cluster A6 (APAP 6 hr),0.468
same,Eif1a avg_logFC,cluster A6 (APAP 6 hr),0.6585
same,Eif1a pct.1,cluster A6 (APAP 6 hr),0.599
same,Eif4g2 avg_logFC,cluster A6 (APAP 6 hr),0.3399
same,Eif4g2 pct.1,cluster A6 (APAP 6 hr),0.757
same,Epas1 avg_logFC,cluster A6 (APAP 6 hr),0.6264
same,Epas1 pct.1,cluster A6 (APAP 6 hr),0.604
same,Etf1 pct.1,cluster A6 (APAP 6 hr),0.606
same,Etnppl avg_logFC,cluster A6 (APAP 6 hr),0.4038
same,Etnppl pct.1,cluster A6 (APAP 6 hr),0.706
same,Ets2 avg_logFC,cluster A6 (APAP 6 hr),0.6277
same,Ets2 pct.1,cluster A6 (APAP 6 hr),0.415
same,Fam107b avg_logFC,cluster A6 (APAP 6 hr),0.4224
same,Fam107b pct.1,cluster A6 (APAP 6 hr),0.449
same,Fam134b avg_logFC,cluster A6 (APAP 6 hr),0.6202
same,Fam134b pct.1,cluster A6 (APAP 6 hr),0.678
same,Fcgr3 avg_logFC,cluster A6 (APAP 6 hr),0.294
same,Fcgr3 pct.1,cluster A6 (APAP 6 hr),0.107
same,Fcna avg_logFC,cluster A6 (APAP 6 hr),0.3469
same,Fcna pct.1,cluster A6 (APAP 6 hr),0.124
same,Fxyd5 avg_logFC,cluster A6 (APAP 6 hr),0.2697
same,Fxyd5 pct.1,cluster A6 (APAP 6 hr),0.138
same,Gclc avg_logFC,cluster A6 (APAP 6 hr),1.893
same,Gclc pct.1,cluster A6 (APAP 6 hr),0.962
same,Gcnt2 avg_logFC,cluster A6 (APAP 6 hr),0.4614
same,Gcnt2 pct.1,cluster A6 (APAP 6 hr),0.372
same,Gm10800 avg_logFC,cluster A6 (APAP 6 hr),0.5383
same,Gm10800 pct.1,cluster A6 (APAP 6 hr),0.115
same,Gm15564 avg_logFC,cluster A6 (APAP 6 hr),0.6079
same,Gm15564 pct.1,cluster A6 (APAP 6 hr),0.983
same,Gm23388 avg_logFC,cluster A6 (APAP 6 hr),0.4216
same,Gm23388 pct.1,cluster A6 (APAP 6 hr),0.222
same,Gm24187 avg_logFC,cluster A6 (APAP 6 hr),0.3969
same,Gm24187 pct.1,cluster A6 (APAP 6 hr),0.2
same,Gm24245 avg_logFC,cluster A6 (APAP 6 hr),0.5737
same,Gm24245 pct.1,cluster A6 (APAP 6 hr),0.422
same,Gm26924 avg_logFC,cluster A6 (APAP 6 hr),0.3029
same,Gm26924 pct.1,cluster A6 (APAP 6 hr),1
same,Gnl3 avg_logFC,cluster A6 (APAP 6 hr),0.477
same,Gnl3 pct.1,cluster A6 (APAP 6 hr),0.501
same,Gpt2 avg_logFC,cluster A6 (APAP 6 hr),0.3682
same,Gpt2 pct.1,cluster A6 (APAP 6 hr),0.764
same,Gsta1 avg_logFC,cluster A6 (APAP 6 hr),0.4204
same,Gsta1 pct.1,cluster A6 (APAP 6 hr),0.32
same,Gtpbp4 avg_logFC,cluster A6 (APAP 6 hr),0.4579
same,Gtpbp4 pct.1,cluster A6 (APAP 6 hr),0.477
same,H2-Ab1 avg_logFC,cluster A6 (APAP 6 hr),0.4491
same,H2-Ab1 pct.1,cluster A6 (APAP 6 hr),0.158
same,H2-Eb1 avg_logFC,cluster A6 (APAP 6 hr),0.3214
same,H2-Eb1 pct.1,cluster A6 (APAP 6 hr),0.105
same,H3f3b avg_logFC,cluster A6 (APAP 6 hr),0.5088
same,H3f3b pct.1,cluster A6 (APAP 6 hr),0.613
same,Hba-a1 avg_logFC,cluster A6 (APAP 6 hr),0.716
same,Hba-a1 pct.1,cluster A6 (APAP 6 hr),0.165
same,Hba-a2 avg_logFC,cluster A6 (APAP 6 hr),0.5328
same,Hba-a2 pct.1,cluster A6 (APAP 6 hr),0.131
same,Heatr1 avg_logFC,cluster A6 (APAP 6 hr),0.3433
same,Heatr1 pct.1,cluster A6 (APAP 6 hr),0.291
same,Hic2 avg_logFC,cluster A6 (APAP 6 hr),0.2673
same,Hic2 pct.1,cluster A6 (APAP 6 hr),0.15
same,Hif1a avg_logFC,cluster A6 (APAP 6 hr),0.4719
same,Hif1a pct.1,cluster A6 (APAP 6 hr),0.427
same,Hilpda avg_logFC,cluster A6 (APAP 6 hr),0.7698
same,Hilpda pct.1,cluster A6 (APAP 6 hr),0.403
same,Hmox1 avg_logFC,cluster A6 (APAP 6 hr),1.29
same,Hmox1 pct.1,cluster A6 (APAP 6 hr),0.558
same,Hnf4a avg_logFC,cluster A6 (APAP 6 hr),0.559
same,Hnf4a pct.1,cluster A6 (APAP 6 hr),0.835
same,Hnrnpdl avg_logFC,cluster A6 (APAP 6 hr),0.4137
same,Hnrnpdl pct.1,cluster A6 (APAP 6 hr),0.406
same,Hsd17b13 avg_logFC,cluster A6 (APAP 6 hr),0.5284
same,Hsd17b13 pct.1,cluster A6 (APAP 6 hr),0.864
same,Ier5 avg_logFC,cluster A6 (APAP 6 hr),0.2797
same,Ier5 pct.1,cluster A6 (APAP 6 hr),0.134
same,Iigp1 avg_logFC,cluster A6 (APAP 6 hr),0.6118
